Experimental data taken from patent US20220389009A1, “SUBSTITUTED 1,6-NAPHTHYRIDINE INHIBITORS OF CDK5” (Goldfinch Bio, Inc., priority 2019, published 2022).
Like-named read-outs stand apart in the source and are kept apart here.

How the values were obtained:
[1] = biological target: CDK5/p25 (Homo sapiens, UniProt Q00535); test: CDK5 mobility shift assay (enzymatic activity of CDK5/p25); format: biochemical; settings: for CDK5/CDK2 specificity: fold more active against CDK5 than CDK2
Method in brief: (§1)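 Carna CDK5/p25 (0.154 nM) or CDK2/CycA2 (1.25 nM) was preincubated 30 min with compound, ATP ([…] for CDK5; 37 μM for CDK2) and 10 mM MgCl2 in HEPES pH 7.5. The reaction was started with 1.5 μM FL peptide (29 for CDK5, 18 for CDK2) and run 60 min (CDK5) or 120 min (CDK2) at room temperature. Product was read by mobility shift, with IC50 from a 4-parameter fit.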

[2] = biological target: CDK2/CycA2 (Homo sapiens, UniProt P24941); test: CDK2 mobility shift assay (enzymatic activity of CDK2/CycA2); format: biochemical
Method in brief: as §1

[3] = 0.154 nM CDK5/p25, FL peptide 29, 60 min at room temperature, read-out: CDK5 IC50
[4] = 1.25 nM CDK2/CycA2, 37 μM ATP, FL Peptide 18, 120 min at room temperature, read-out: CDK2 IC50

Chain of CDK5/p25 (Q00535 whole entry): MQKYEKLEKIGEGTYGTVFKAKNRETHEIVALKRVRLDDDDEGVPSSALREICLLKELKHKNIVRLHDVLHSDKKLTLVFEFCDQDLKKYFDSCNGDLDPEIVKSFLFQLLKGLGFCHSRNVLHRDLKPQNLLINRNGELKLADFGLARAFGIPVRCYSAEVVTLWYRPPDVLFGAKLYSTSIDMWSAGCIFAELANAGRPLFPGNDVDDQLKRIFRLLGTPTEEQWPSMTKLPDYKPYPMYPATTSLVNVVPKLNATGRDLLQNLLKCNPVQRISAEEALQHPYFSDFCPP
Chain of CDK5/p25 (Q15078 99-307 partner limits assumed): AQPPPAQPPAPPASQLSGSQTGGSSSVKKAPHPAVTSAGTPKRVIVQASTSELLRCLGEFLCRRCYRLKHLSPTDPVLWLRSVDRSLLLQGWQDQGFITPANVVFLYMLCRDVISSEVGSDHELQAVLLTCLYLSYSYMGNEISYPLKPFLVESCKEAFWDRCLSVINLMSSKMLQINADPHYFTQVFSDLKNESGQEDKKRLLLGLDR

IC50 [1, 3] [nM] | IC50 [2, 4] [nM] | SMILES | CDK5/CDK2 specificity [1] | IC50 ([1]; CDK5 IC50) [nM] | IC50 ([2]; CDK2 IC50) [nM]
< 10 | 10 to 100 | CN1CCC(C(C)(O)c2ccc3cnc(Nc4ccc(-c5ccc(=O)[nH]c5)cc4F)cc3n2)CC1 (stereo not drawn) [Compound 383] | ++ (greater than 10-fold and less than or equal to 100-fold more active against CDK5 than CDK2) | – | –
< 10 | 10 to 100 | CN1CCC(C(F)(F)c2ccc3cnc(Nc4ccc(-n5cccn5)cc4F)cc3n2)CC1 [Compound 291, 2-[difluoro(1-methylpiperidin-4-yl)methyl]-N-[2-fluoro-4-(pyrazol-1-yl)phenyl]-1,6-naphthyridin-7-amine] | ++ (greater than 10-fold and less than or equal to 100-fold more active against CDK5 than CDK2) | – | –
< 10 | 100 to 1000 | CN1CCC(S(=O)(=O)c2ccc3cnc(Nc4ccc5oc(=O)ccc5c4)cc3n2)CC1 [Compound 272] | ++ (greater than 10-fold and less than or equal to 100-fold more active against CDK5 than CDK2) | – | –
– | – | O=C(O)CN(c1ccc2cnc(Nc3ccc(-n4ccc(CO)n4)cc3F)cc2n1)C1CCNCC1 [Compound 101, [[7-([2-fluoro-4-[3-(hydroxymethyl)pyrazol-1-yl]phenyl]amino)-1,6-naphthyridin-2-yl](piperidin-4-yl)amino]acetic acid] | ++ (greater than 10-fold and less than or equal to 100-fold more active against CDK5 than CDK2) | 10 to 100 | > 1000
< 10 | 100 to 1000 | CNC(=O)c1ccc(Nc2cc3nc(S(=O)(=O)C4CCN(C)CC4)ccc3cn2)cc1 [Compound 268] | ++ (greater than 10-fold and less than or equal to 100-fold more active against CDK5 than CDK2) | – | –
> 1000 | > 1000 | CN1CCC(S(=O)(=O)c2ccc3cnc(Nc4cnc5ccc(Cl)nn45)cc3n2)CC1 [Compound 286] | + (10-fold or less more active against CDK5 than CDK2) | – | –
10 to 100 | > 1000 | CN1CCC(S(=O)(=O)c2ccc3cnc(Nc4ccc(-c5cccn(C)c5=O)cc4F)cc3n2)CC1 [Compound 378] | +++ (greater than 100-fold more active against CDK5 than CDK2) | – | –
< 10 | 100 to 1000 | O=S(=O)(c1ccc2cnc(Nc3ccc(-c4cccnc4)cc3F)cc2n1)C1CCN(CC2COC2)CC1 [Compound 323] | +++ (greater than 100-fold more active against CDK5 than CDK2) | – | –
100 to 1000 | > 1000 | OCc1ccn(-c2ccc(Nc3cc4nc(C(CO)C5CCNCC5)ccc4cn3)c(F)c2)n1 (stereo not drawn) [Compound 142] | + (10-fold or less more active against CDK5 than CDK2) | – | –
100 to 1000 | > 1000 | OC(c1ccc2cnc(Nc3ccc(-n4cccn4)cc3F)cc2n1)C1(O)CCNCC1 (stereo not drawn) [Compound 209, 4-[(7-[[2-fluoro-4-(pyrazol-1-yl)phenyl]amino]-1,6-naphthyridin-2-yl) (hydroxy)methyl]piperidin-4-ol] | ++ (greater than 10-fold and less than or equal to 100-fold more active against CDK5 than CDK2) | – | –
< 10 | 100 to 1000 | OCCN1CCC(C(O)c2ccc3cnc(Nc4ccc(-n5ccc(CO)n5)cc4F)cc3n2)CC1 (single isomer, unassigned) [Compound 252, 2-(4-[[7-([2-fluoro-4-[3-(hydroxymethyl)pyrazol-1-yl]phenyl]amino)-1,6-naphthyridin-2-yl](hydroxy)methyl]piperidin-1-yl)ethanol] | +++ (greater than 100-fold more active against CDK5 than CDK2) | – | –
100 to 1000 | > 1000 | CN1CCC(NS(=O)(=O)c2ccc3cnc(Nc4ccc(-n5ccc(CO)n5)cc4F)cc3n2)CC1 [Compound 203, 7-([2-fluoro-4-[3-(hydroxymethyl)pyrazol-1-yl]phenyl]amino)-N-(1-methylpiperidin-4-yl)-1,6-naphthyridine-2-sulfonamide] | + (10-fold or less more active against CDK5 than CDK2) | – | –
< 10 | 100 to 1000 | COc1ccc(-c2ccc(Nc3cc4nc(C(C)C5CCN(C)CC5)ccc4cn3)c(F)c2)cc1 (stereo not drawn) [Compound 322] | +++ (greater than 100-fold more active against CDK5 than CDK2) | – | –
10 to 100 | > 1000 | Fc1cc(-n2cccn2)ccc1Nc1cc2nc(C=C3CCNCC3)ccc2cn1 [Compound 130, N-[2-fluoro-4-(pyrazol-1-yl)phenyl]-2-(piperidin-4-ylidenemethyl)-1,6-naphthyridin-7-amine] | ++ (greater than 10-fold and less than or equal to 100-fold more active against CDK5 than CDK2) | – | –
< 10 | 10 to 100 | CN1CCC(/C(=N\O)c2ccc3cnc(Nc4ccc(-n5cccn5)cc4F)cc3n2)CC1 [Compound 375] | ++ (greater than 10-fold and less than or equal to 100-fold more active against CDK5 than CDK2) | – | –
100 to 1000 | > 1000 | CCC(c1ccc2cnc(Nc3ccc(-n4ccc(CO)n4)cc3F)cc2n1)C1CCN(C)CC1 (stereo not drawn) [Compound 246] | ++ (greater than 10-fold and less than or equal to 100-fold more active against CDK5 than CDK2) | – | –
< 10 | 10 to 100 | CN1CCC([C@@](C)(O)c2ccc3cnc(Nc4ccccc4)cc3n2)CC1 [Compound 345, (1R)-1-(1-methylpiperidin-4-yl)-1-[7-(phenylamino)-1,6-naphthyridin-2-yl]ethanol] | ++ (greater than 10-fold and less than or equal to 100-fold more active against CDK5 than CDK2) | – | –
< 10 | 10 to 100 | CCc1cccc(Nc2cc3nc(C(C)(O)C4CCN(C)CC4)ccc3cn2)c1 (stereo not drawn) [Compound 373] | ++ (greater than 10-fold and less than or equal to 100-fold more active against CDK5 than CDK2) | – | –

SMILES | IC50 [1, 3] [nM] | IC50 [2, 4] [nM] | CDK5/CDK2 specificity [1] | IC50 ([1]; CDK5 IC50) [nM] | IC50 ([2]; CDK2 IC50) [nM]
CN1CCC(N(Cc2cn[nH]c2)c2ccc3cnc(Nc4ccc(-n5ccc(CO)n5)cc4F)cc3n2)CC1 [Compound 309, [1-[3-fluoro-4-([2-[(1-methylpiperidin-4-yl) (1H-pyrazol-4-ylmethyl)amino]-1,6-naphthyridin-7-yl]amino)phenyl]pyrazol-3-yl]methanol] | 10 to 100 | > 1000 | ++ (greater than 10-fold and less than or equal to 100-fold more active against CDK5 than CDK2) | – | –
CCN1CCC(N(CC(=O)O)c2ccc3cnc(Nc4ccc(-n5ccc(CO)n5)cc4F)cc3n2)CC1 [Compound 144, [(1-ethylpiperidin-4-yl)[7-([2-fluoro-4-[3-(hydroxymethyl)pyrazol-1-yl]phenyl]amino)-1,6-naphthyridin-2-yl]amino]acetic acid] | < 10 | 100 to 1000 | +++ (greater than 100-fold more active against CDK5 than CDK2) | – | –
OCc1ccn(-c2ccc(Nc3cc4nc(N(Cc5cn[nH]c5)C5CCNCC5)ccc4cn3)c(F)c2)n1 [Compound 287, [1-[3-fluoro-4-([2-[piperidin-4-yl(1H-pyrazol-4-ylmethyl)amino]-1,6-naphthyridin-7-yl]amino)phenyl]pyrazol-3-yl]methanol] | 10 to 100 | > 1000 | ++ (greater than 10-fold and less than or equal to 100-fold more active against CDK5 than CDK2) | – | –
